Reference: patent US20070027175A1, “Antineoplastic activities of ellipticine and its derivatives” (priority 2005, published 2007)

Test system: human fetal bone mesenchymal cells
Experiment: Morphology of mesenchymal cells in co-culture
Type: cell-based
Details: co-culture without direct contact; EPED3 2 mM, Velcade 0.5 mM
Method: FIGS. 11A-11F compare the morphological features of EPED3 and Velcade induced apoptosis in myeloma cells and normal mesenchymal cells. JJN3 myeloma cell line and human fetal bone mesenchymal cells were co-cultured without direct contact between cell types. EPED3 (2 mM) and Velcade (0.5 mM) were added to the cultures; control cells were untreated. Live cell cultures were photographed 3 days after initiating treatment (400× magnification under Olympus invert-microscope with RT-Color SPOT digital camera and the software, Diagnostic Instrument Inc. Sterling Heights, Mich.). In comparison to cell morphology of non-treated JJN3 cells, myeloma cells were destroyed under both EPED3 (FIG. 11E) and Velcade (FIG. 11F) treatments as the appearance of cell shrinkage, and the formation of phagozytosed apoptotic bodies (arrows); in comparison to no treatment, mesenchymal cells were also destroyed by Velcade treatment as the appearance of cell shrinkage, and the formation of phagozytosed apoptotic bodies (arrows) (FIG. 1C) but not by EPED3 treatment (FIG. 11B).
The monolayer human fetal bone mesenchymal cells were established from live bone chips (Advanced Bioscience Resources Inc, Alameda, Calif.) in complete RPMI-1640 medium. The medium was the same as described above. The cells were trypsinized and seeded in 6-well plates, and then allowed to reach 75% confluence. […]

CC(C)C[C@H](NC(=O)[C@H](Cc1ccccc1)NC(=O)c1cnccn1)B(O)O [Velcade, bortezomib, reference compound]
morphological damage of mesenchymal cells: severe destruction of the mesenchymal cells
